Source: patent US8048900B2, “Use of 15-lipoxygenase inhibitors for treating obesity” (Genfit S.A., priority 2006, dated 2011)
Like-named read-outs stand apart in the source and are kept apart here.

Key:
[1] = system: rat PA; experiment: Rat primary PA morphology during adipocyte differentiation; type: cell-based; conditions: 2.2 μM added at D0
Protocol: (§1) Cells from the VS fraction (isolated by the same method as that described in example 3) are seeded in 6-well plates at a density of 80,000 cells/cm^2 in medium 199 (Gibco) supplemented with 10% FCS and a penicillin/streptomycin mixture. After a 16-hour incubation to allow cell adherence, the wells are gently rinsed with PBS to remove any non-adherent material. The cells are grown to confluence (D0) at which time the medium 199 is removed and replaced by ITT medium (DME/Ham's F12, 15 mM NaHCO3, 15 mM Hepes, 33 μm biotin, 17 μM panthotenate, 0.5 μM human insulin, 0.2 nM triiodothyronine and antibiotics) without addition of serum. Cells are maintained in this medium to enable differentiation; the medium is changed every 2-3 days during the differentiation process.
(§2) Caffeic acid (2.2 μM) was added when the rat PA reach confluence (D0) and is maintained during the adipocyte differentiation process. At a concentration of 2.2 μM, caffeic acid is considered as a selective inhibitor of 15-LO (Shureiqi I, Chen D, Lee J J, Yang P, Newman R A, Brenner D E, Lotan R, Fischer S M and Lippman S M, 2000). DMSO is added to 0.1% final concentration to the culture medium as negative control.

[2] = system: rat PA; experiment: aP2 expression in rat primary PA during adipocyte differentiation; type: cell-based; conditions: 2.2 μM added at D0, read at D3
Protocol: as §1
as §2, with “DMSO is added to 0.1% final concentration to the culture medium as negative control.” left out
Total RNA is extracted at different times during differentiation according to the method described in example 3 and aP2 and LPL gene expression is analyzed by quantitative RT-PCR as described in example 2 (see Table 10).

[3] = system: 15-LO; conditions: 15-LO inhibition, cited from earlier work
[4] = system: human abdominal visceral PA; experiment: aP2 marker expression during differentiation of human abdominal visceral pre-adipocytes (RT-PCR / RT-QPCR); type: cell-based
Protocol: (§3) HWP from Promocell are maintained in PA growth medium (0.4% ECGS/H, 5% FCS, 10 ng/ml EGF, 1 μg/ml hydrocortisone, 50 ng/ml amphotericin B, 50 μg/ml gentamycin) until confluence. When cells reach confluence, they are differentiated for 3 days in PA differentiation medium (8 μg/ml d-biotin, 0.5 μg/ml recombinant human insulin, 400 ng/ml dexamethasone, 44 μg/ml IBMX, 9 ng/ml L-thyroxin, 3 μg/ml ciglitazone, 50 ng/ml amphotericin B, 50 ng/ml gentamycin), then cultured to the terminal differentiation stage in adipocyte nutritive medium (3% FCS, 8 μg/ml d-biotin, 0.5 μg/ml recombinant human insulin, 400 ng/ml dexamethasone, 50 ng/ml amphotericin B, 50 μg/ml gentamycin). PA from Cambrex are maintained in PA growth medium (10% FCS, 100 U/ml penicillin, 100 μg/ml streptomycin) until confluence, then the medium is replaced by differentiation medium (10% FCS, 10 μg/ml recombinant human insulin, 1 μM dexamethasone, 500 μM IBMX, 200 μM indomethacin, 100 U/ml penicillin, 100 μg/ml streptomycin) throughout the differentiation process. Extraction of RNA and Analysis of 15-LO-1 and aP2 Gene Expression by RT-PCR and RT-QPCR
Human abdominal visceral PA from several donors are differentiated as described in example 4. PD146176 diluted in DMSO is added when the PA reached confluence (D0) and is maintained in the medium during the differentiation of PA to adipocytes. DMSO at 0.1% final concentration is added to the culture medium as negative control.
aP2 (adipocyte lipid-binding protein), like adiponectin, is a marker of adipocyte differentiation. Total RNA is extracted from the cells at different times during differentiation (D3, D7) as described in example 3 and expression of the aP2 marker is analyzed by RT-PCR or RT-QPCR as described in examples 1 and 2. Relative expression is reported with reference to the day of confluence (D0) and normalized to cyclophilin expression.

[5] = system: human abdominal visceral PA; experiment: Adiponectin secretion during differentiation of human abdominal visceral pre-adipocytes; type: cell-based; conditions: culture supernatant, D7 of differentiation, treated from D0, PA culture No. 3 passage 4
Protocol: as §3, with “Extraction of RNA and Analysis of 15-LO-1 and aP2 Gene Expression by RT-PCR and RT-QPCR” left out
Adiponectin is a factor secreted by adipocytes and, like aP2, serves as a marker of adipocyte differentiation in our cultures. Adiponectin concentrations is determined in culture supernatants at different times during differentiation using the Quantikine human adiponectin/ACRP30 kit according to the supplier's instructions (R&D, Minneapolis, Minn., USA).

[6] = system: 3T3-L1 cells; experiment: 3T3-L1 cell morphology during adipocyte differentiation; type: cell-based, mouse; conditions: addition at D0, photographs during differentiation
Protocol: (§4) The mouse PA 3T3-L1 cell line (ATCC) is maintained in DMEM (Dulbecco's Modified Eagle's minimal essential Medium) supplemented with 10% FCS, L-glutamine and a penicillin/streptomycin mixture. At confluence (D0), 3T3-L1 cells are differentiated by a two-day treatment with a mixture of dexamethasone (0.1 μM), isobutylmethylxanthine (0.25 mM) and insulin (0.4 μM). Cells are then maintained on insulin for another 14 days until differentiation is complete. Photographs are taken at different times after confluence in order to visually follow the differentiation process.
(§5) PD146176 is added to the 3T3-L1 cells when they reach confluence (D0) and is maintained throughout the differentiation process with replacement every other day at the same time as the insulin.

[7] = system: 3T3-L1 cells; experiment: Quantification of 3T3-L1 differentiation with AdipoRed; type: cell-based, mouse; conditions: addition at D0, starting from D3 of differentiation
Protocol: as §4, §5
The gradual accumulation of intracellular droplets is also used as a functional marker of differentiation to adipocytes. To quantify this accumulation the 3T3-L1 cells are differentiated in 96-well microtiter plates. The plates are removed from the incubator on the day of the assay in order to reequilibrate to room temperature. The medium is removed, the cells carefully rinsed with 200 μl PBS, and 200 μl PBS are then added to each well followed by 5 μl AdipoRed reagent (Cambrex, Paris, France). The plates are mixed before measuring fluorescence on a fluorimeter at an excitation wavelength of 485 nm and an emission wavelength of 535 nm.

[8] = system: 3T3-L1 cells; experiment: Assay of intracellular triglycerides in 3T3-L1 cells; type: cell-based, mouse
Protocol: The mouse PA 3T3-L1 cell line (ATCC) is maintained in DMEM (Dulbecco's Modified Eagle's minimal essential Medium) supplemented with 10% FCS, L-glutamine and a penicillin/streptomycin mixture. At confluence (D0), 3T3-L1 cells are differentiated by a two-day treatment with a mixture of dexamethasone (0.1 μM), isobutylmethylxanthine (0.25 mM) and insulin (0.4 μM). Cells are then maintained on insulin for another 14 days until differentiation is complete. Photographs are taken at different times after confluence in order to visually follow the differentiation process. PD146176 is added to the 3T3-L1 cells when they reach confluence (D0) and is maintained throughout the differentiation process with replacement every other day at the same time as the insulin. To assay intracellular triglycerides, the 3T3-L1 cells are differentiated in 24-well microtiter plates. Cells are washed three times in PBS, then 500 μl of homogenization buffer (150 mM NaCl, Tris HCL pH 8, 0.1% Triton X-100) are added to each well. The cells are scraped into a tube and lysed by sonication for 10 seconds at 40 watts. The lysate is then filtered on a 0.2 μM millipore filter. The assay is carried out on 125 μl of the resulting lysate using the Triglyceride L-type kit (Wako). The assay is normalized for the protein content of the lysates.

[9] = system: 3T3-L1 cells; experiment: aP2 and LPL expression by RT-QPCR in 3T3-L1 cells during differentiation; type: cell-based, mouse; conditions: addition at D0, starting from D3 of differentiation
Protocol: as §4, §5
Total RNA is extracted at different times during differentiation as described in example 3 and expression of the aP2 and LPL (lipoprotein lipase) genes is analyzed by RT-QPCR according to the method described in example 2 (see Table 9).

[10] = value quoted from prior patents

## O=C(O)/C=C/c1ccc(O)c(O)c1 [caffeic acid]
[1]
  lipid accumulation in the cells (morphology): inhibition of lipid accumulation
[2]
  aP2 expression: decreases aP2 expression

## COc1ccc(-c2cc3cc(F)c(F)cc3[nH]2)cc1NS(=O)(=O)NC(=O)OCC(C)C [[[[5-(5,6-difluoro-1H-indol-2-yl)-2-methoxyphenyl]amino]sulfonyl]carabamic acid isobutyl ester]
[3]; [10]
  IC50: 14 nM

## COc1ccc(C(=O)Nc2ccc(Cl)c(Cl)c2)cc1N [3-amino-N-(3,4-dichlorophenyl)-4-methoxy-benzamide]
[3]; [10]
  IC50: 10 nM

## c1ccc2c(c1)SCc1c-2[nH]c2ccccc12 [PD146176, 6,11-dihydro-5-thia-11-aza-benzo[a]-fluorene]
[4]; RT-PCR, D3 of differentiation, PA culture No. 1 passage 7, increasing concentrations added at D0
  expression of the aP2 marker: decreases the expression of the aP2 marker in a dose-dependent manner
[4]; RT-QPCR, D7, 3 μM from D0, PA culture No. 2
  inhibition of 15-LO-1 expression: almost completely
[4]; RT-QPCR, D7, 3 μM from D0, PA culture No. 3
  inhibition of 15-LO-1 expression: 90%
[4]; RT-QPCR, D7 of differentiation, 3 μM from D0, PA cultures No. 2 and No. 3, vs DMSO-treated or untreated cells
  aP2 expression: strongly inhibited
[5]
  adiponectin secretion: sharply decreased
[6]
  lipid accumulation in the cells (morphology): dose-dependent inhibition of lipid accumulation
[7]
  AdipoRed staining: sharply decreases AdipoRed staining in a dose-dependent manner
[8]; 10 μM, D10
  decrease in triglyceride accumulation relative to the control: 80%
[8]; addition at D0
  triglyceride accumulation: dose-dependent decrease
[9]
  expression of LPL marker: dose-dependent decrease
  expression of aP2 marker: dose-dependent decrease
[3]; value quoted from prior literature/patents
  IC50: 500 to 800 nM
[3]; [10]
  IC50: 200 nM
